Measurements: US20250352539A1, “COMBINATION THERAPY FOR TREATING CANCER” (AstraZeneca AB, priority 2022, published 2025)

Key:
Type in all cases: cell-based
[1] = system: SUM149PT 53BP1 KO cell pools; assay: Clonogenic proliferation assay (14 days, SRB); conditions: Homo sapiens; SUM149PT 53BP1 KO; monotherapy; read-out: IC50, clonogenic growth
Experimental: (§1) Parental BRCA1 mutant SUM149PT breast cancer cell line (Elstrodt 2006) were obtained from AstraZeneca Cell Bank at Alderley Park, Macclesfield. Cells were routinely grown in Ham's F12 media containing 5% foetal calf serum, 1% glutamine (2 mM), 500 ng/ml hydrocortisone and 5% insulin. SUM149PT 53BP1 WT (CNTR) and 53BP1 null (KO) cell pools were generated by CRISPR-Cas9 technology. Short guide (sg) RNA targeting TP53BP1 on exon 10 (GAGTAGATCGGAAAGCATC) and a non-targeting CNTR guide (GAGTAGATCGGAAAGCATC) were designed and cloned into a lentiviral vector containing a mClover3 cassette for green fluorescence signal and hygromycin cassette for selection (pKLV2-U6gRNA (Bbsl)-EF1a-mClover3-T2A-HygR-W). Lentiviruses were generated from both KO and CNTR (sg) RNA and Cas9 (pKLVEF1a-Cas9Bsd-W) plasmids and parental cells were transduced first with Cas9 lentiviruses followed by blasticidin selection and then with KO and CNTR lentiviruses followed by hygromycin selection. Loss of 53BP1 was verified by analysing 53BP1 protein expression from whole cell lysates by western blotting (Novus, NB100-304, 1:1000 dilution).
(§2) Cells were seeded onto 6-well plates, three replicates per cell line, and 24 hours later the cells were dosed with AZD6738/AZD5305. For monotherapies the cells were dosed with a 6-point concentration response of AZD6738 (0 to 0.64 μM) or AZD5305 (0 to 1 μM). For combination treatments single dose of AZD5305 (10 nM) was used with a 5-point concentration response of AZD6738 (0 to 0.64 μM) for 53BP1 KO cells. Cells were grown for 14 days for colony formation without media changes. Cells were fixed with 10% TCA (Tricloroacetic acid). 14 days after dosing any formed colonies were stained with 0.057% SRB (sulforhodamine B acid), imaged with GelCount™ (Oxford OPTRONIX) at 600 dpi resolution and the stained colony growth intensity was measured using plate reader with OD @[…]. Dose response curves were generated and IC50 concentrations were calculated using GraphPad PRISM software.

[2] = system: SUM149PT 53BP1 WT (CNTR) cells; assay: Clonogenic proliferation assay (14 days, SRB); conditions: Homo sapiens; SUM149PT CNTR; monotherapy; read-out: IC50, clonogenic growth
Experimental: as §1, §2

NCI-H810 = assay: 10-day Cell Titre Glo combination screen; conditions: Homo sapiens; NCI-H810 lung; monotherapy; read-out: mono AC50
Excerpt: (§3) The Highest Single Agent (HSA) model is used to determine a combination's synergy score (and is based simply on the intuition that if a combination's effect exceeds the effect level of each of its constituents, there must be some combination interaction). Mathematically, the HSA model describes simple superposition of the single agent curves:
(§4) where CX,Y are the concentrations of the X and Y compound, and IX and IY are inhibitions of the single agents at CX,Y. It is also useful to calculate a volume score (HSA Volume) between the data and the HSA surface to characterise the overall strength of combination effects. Empirically derived combination matrices are compared to their respective HSA additivity models constructed from experimentally collected single agent dose response curves. Summation of this excess additivity across the dose response matrix is referred to HSA Volume.
(§5) Potency shifting can also be scored using combination index (CI). For a chosen iso-effect level (ICut), CI is calculated as: […]
(§6) where (CX/ECX) for a particular data point is the ratio of the X compound's measured concentration to its effective concentration at the chosen effect level. The CI is a rough estimate of how much drug was needed in combination relative to the single agent doses required to achieve the chosen effect level. CI values in the range of 0.5-0.7 are typical for in vitro measurements of current clinical combinations. The CI error (σCI) is calculated using standard error propagation through the CI calculation based on the isobologram errors.
(§7) This combination screen was a 10-day assay using Cell Titre Glo as the readout for viability.
(§8) The assay was performed in 384 well plates, with 1 cell line and 4 drug-drug combinations per plate dosed in a 6×6 matrix. A day zero reading was measured to determine growth inhibition. GenedataScreener was used to input the raw values for every well, and the software was programmed to normalise the values to the day zero and DMSO control values.
(§9) The CellTiter-Glo® Luminescent Cell Viability Assay is a homogeneous method to determine the number of viable cells in culture based on quantitation of the ATP present, which signals the presence of metabolically active cells. It relies on the properties of a proprietary thermostable luciferase (Ultra-Glo™ Recombinant Luciferase), which generates a stable “glow-type” luminescent signal and improves performance across a wide range of assay conditions.
(§10) The following information was reported: Synergy scores (HSA); combination index values; AC50 (half-maximal activity concentration) monotherapy values.

NCI-H1666 = assay: 10-day Cell Titre Glo combination screen; conditions: Homo sapiens; NCI-H1666 lung; monotherapy; read-out: mono AC50
Excerpt: as §3, §4, §5, §6, §7, §8, §9, §10

HCC1937 = assay: 10-day Cell Titre Glo combination screen; conditions: Homo sapiens; HCC1937 breast; monotherapy; read-out: mono AC50
Excerpt: as §3, §4, §5, §6, §7, §8, §9, §10

NCI-H1373 = assay: 10-day Cell Titre Glo combination screen; conditions: Homo sapiens; NCI-H1373 lung; monotherapy; read-out: mono AC50
Excerpt: as §3, §4, §5, §6, §7, §8, §9, §10

JIMT-1 = assay: 10-day Cell Titre Glo combination screen; conditions: Homo sapiens; JIMT-1 breast; monotherapy; read-out: mono AC50
Excerpt: as §3, §4, §5, §6, §7, §8, §9, §10

MDA-MB-157 = assay: 10-day Cell Titre Glo combination screen; conditions: Homo sapiens; MDA-MB-157 breast; monotherapy; read-out: mono AC50
Excerpt: as §3, §4, §5, §6, §7, §8, §9, §10

HOP62 = assay: 10-day Cell Titre Glo combination screen; conditions: Homo sapiens, HOP-62; HOP62 lung; monotherapy; read-out: mono AC50
Excerpt: as §3, §4, §5, §6, §7, §8, §9, §10

DMS53 = assay: 10-day Cell Titre Glo combination screen; conditions: Homo sapiens, DMS-53; DMS53 lung; monotherapy; read-out: mono AC50
Excerpt: as §3, §4, §5, §6, §7, §8, §9, §10

DU4475 = assay: 10-day Cell Titre Glo combination screen; conditions: Homo sapiens, DU-4475; DU4475 breast; monotherapy; read-out: mono AC50
Excerpt: as §3, §4, §5, §6, §7, §8, §9, §10

BT-20 = assay: 10-day Cell Titre Glo combination screen; conditions: Homo sapiens; BT-20 breast; monotherapy; read-out: mono AC50
Excerpt: as §3, §4, §5, §6, §7, §8, §9, §10

NCI-H2009 = assay: 10-day Cell Titre Glo combination screen; conditions: Homo sapiens; NCI-H2009 lung; monotherapy; read-out: mono AC50
Excerpt: as §3, §4, §5, §6, §7, §8, §9, §10

MCF7 = assay: 10-day Cell Titre Glo combination screen; conditions: Homo sapiens; MCF7 breast; monotherapy; read-out: mono AC50
Excerpt: as §3, §4, §5, §6, §7, §8, §9, §10

SMILES: C[C@@H]1COCCN1c1cc(C2([S@](C)(=N)=O)CC2)nc(-c2ccnc3[nH]ccc23)n1 [AZD6738, 4-{4-[(3R)-3-Methylmorpholin-4-yl]-6-[1-((R)—S-methylsulfonimidoyl)cyclopropyl]pyrimidin-2-yl}-1H-pyrrolo[2,3-b]-pyridine]
- IC50 [1]: ~630 nM
- IC50 [2]: ~630 nM
- AC50 (NCI-H810): 3350 nM
- AC50 (NCI-H1666): 767 nM
- AC50 (HCC1937): 570 nM
- AC50 (NCI-H1373): 1240 nM
- AC50 (JIMT-1): 869 nM
- AC50 (MDA-MB-157): 732 nM
- AC50 (HOP62): 590 nM
- AC50 (DMS53): 2180 nM
- AC50 (DU4475): 3250 nM
- AC50 (BT-20): 723 nM
- AC50 (NCI-H2009): 1020 nM
- AC50 (MCF7): 1120 nM
